According to patent US8404664B2, “Phosphonated Rifamycins and uses thereof for the prevention and treatment of bone and joint infections” (Targanta Therapeutics, Inc., priority 2005, dated 2013):
Like-named read-outs stand apart in the source and are kept apart here.

Legend:
S. aureus ATCC 13709 = assay: Antibacterial susceptibility (MIC) in the presence of serum; format: cell-based; conditions: for MIC: Staphylococcus aureus, ATCC13709, 18 h
[1] = Levels of compound 9 in rat tibiae (microbiological assay); format: in vivo; conditions: for Amount of compound 9 in the uninfected tibiae: dose equivalent to 10 mg/kg of 9 (11: 15.5 mg/kg), three days prior to infection
Experimental: The experimentally obtained intact uninfected (contra lateral) tibia of the treated and infected rats described above was ground to a powder which was suspended in PBS+2% DMSO. The mixture was centrifuged for 2 min at 13,000 rpm. The amount of compound 9 released in the supernatant was determined by microbiological assay as described previously (Example 3).

[2] = system: S. aureus ATCC 13709 Novobiocin resistant mutant (bone infection); assay: Prophylactic efficacy in rat model of S. aureus bone infection; format: in vivo; conditions: for Prophylactic effect (in words): rat bone infection, doses and times of Table 3, t-test p<0.05; for Measured bacterial titer: rat tibia 24 h postinfection
[3] = Regeneration of drug from bone powder-bound prodrug; format: in vitro ADME; conditions: for % Conversion of bone-bound prodrug to parent drug: 24 h incubation, 37° C.; for Impact of the medium on the rate of regeneration of parent drug (in words): serum compared to PBS
[4] = single dose 11 mg/kg parent drug equivalent, 3 days prior to infection

Row | Compound | Impact of serum on the MICs (in words) (S. aureus ATCC 13709) | Minimum inhibitory concentration, S. aureus ATCC 13709 + 50% Human Serum (S. aureus ATCC 13709) | Minimum inhibitory concentration, S. aureus ATCC 13709 + 50% Mouse Serum (S. aureus ATCC 13709) | Minimum inhibitory concentration, S. aureus ATCC 13709 + 50% Rat Serum (S. aureus ATCC 13709) | Level of compound 9 in uninfected tibia ([1]; 11 at 32 mg/kg once weekly for 4 weeks after the infection) | Amount of compound 9 in the uninfected tibiae [1] | Prophylactic effect (in words) [2] | Measured bacterial titer [2, 4] | Regeneration of parent drug once bound to bone (in words) [3] | % Conversion of bone-bound prodrug to parent drug ([3]; 50% Human Serum) | % Conversion of bone-bound prodrug to parent drug ([3]; 50% Rat Serum) | % Conversion of bone-bound prodrug to parent drug ([3]; PBS) | Impact of the medium on the rate of regeneration of parent drug (in words) [3] | MIC (S. aureus ATCC 13709; read-out: Minimum inhibitory concentration, S. aureus ATCC 13709 + 50% Human Serum) | MIC (S. aureus ATCC 13709; read-out: Minimum inhibitory concentration, S. aureus ATCC 13709 + 50% Mouse Serum) | MIC (S. aureus ATCC 13709; read-out: Minimum inhibitory concentration, S. aureus ATCC 13709 + 50% Rat Serum) | Measured bacterial titer ([2]; single dose 20 mg/kg parent drug equivalent, 2 days prior to infection) | Measured bacterial titer ([2]; single dose 20 mg/kg parent drug equivalent, 3 days prior to infection) | Measured bacterial titer ([2]; single dose 10 mg/kg parent drug equivalent, 3 days prior to infection)
1 | 3-(((4-(2-(3-((bisphosphonomethyl)carbamoyl)propanoyloxy)ethyl)-1-piperazinyl)imino)methyl)rifamycin [Compound 11] | no impact | 0.25 µg/mL | 0.25 µg/mL | 0.25 µg/mL | 1.28±0.18 μg/g of bone | 0.88 ± 0.11 µg/g | statistically significant | 3.01 ± 0.47 Log CFU/g of bone | appreciable rates of regeneration | 1.01% | 1.01% | 0.97% | not significantly impacted |  |  |  |  |  | 
2 | CO[C@H]1/C=C/O[C@@]2(C)Oc3c(C)c(O)c4c(O)c(c(/C=N/N5CCN(CCO)CC5)c(O)c4c3C2=O)NC(=O)/C(C)=C\C=C\[C@H](C)[C@H](O)[C@@H](C)[C@@H](O)[C@@H](C)[C@H](OC(C)=O)[C@@H]1C [Compound 9, 3-(((4-(2-hydroxyethyl)-1-piperazinyl)imino)methyl)rifamycin] |  |  |  |  |  | < 0.17 µg/g |  | 6.38 ± 0.90 Log CFU/g of bone |  |  |  |  |  | 0.062 µg/mL | 0.062 µg/mL | 0.062 µg/mL |  |  | 
3 | CO[C@H]1/C=C/O[C@@]2(C)Oc3c(C)c(O)c4c(=O)c(c5oc6cc(N7CCN(CCOC(=O)CCC(=O)NC(P(=O)(O)O)P(=O)(O)O)CC7)cc(O)c6nc-5c4c3C2=O)NC(=O)/C(C)=C\C=C\[C@H](C)[C@H](O)[C@@H](C)[C@@H](O)[C@@H](C)[C@H](OC(C)=O)[C@@H]1C.N.N [Compound 62] |  | 0.032 µg/mL | 0.032 µg/mL | 0.0156 µg/mL |  |  | statistically significant |  | appreciable rates of regeneration | 0.86% | 0.91% | 0.21% | significant acceleration |  |  |  | 1.98 ± 0.06 Log CFU/g of bone |  | 
4 | CO[C@H]1/C=C/O[C@@]2(C)Oc3c(C)c(O)c4c(=O)c(c5oc6cc(N7CCN(CCC(=O)c8ccc(OCCCC(P(=O)(O)O)P(=O)(O)O)cc8)CC7)cc(O)c6nc-5c4c3C2=O)NC(=O)/C(C)=C\C=C\[C@H](C)[C@H](O)[C@@H](C)[C@@H](O)[C@@H](C)[C@H](OC(C)=O)[C@@H]1C [Compound 71] |  | 0.032 µg/mL | 0.032 µg/mL | 0.032 µg/mL |  |  | statistically significant |  |  | 0.46% | 0.38% | 0.1% | significant acceleration |  |  |  |  | 2.77 ± 1.00 Log CFU/g of bone | 
5 | CO[C@H]1/C=C/O[C@@]2(C)Oc3c(C)c(O)c4c(=O)c(c5oc6cc(N7CCN(CC(C)C)CC7)cc(O)c6nc-5c4c3C2=O)NC(=O)/C(C)=C\C=C\[C@H](C)[C@H](OC(=O)CCCOC(=O)CCC(=O)NC(P(=O)(O)O)P(=O)(O)O)[C@@H](C)[C@@H](O)[C@@H](C)[C@H](OC(C)=O)[C@@H]1C [Compound 81, 21-O-(4-((3-(bisphosphonomethyl)carbamoyl)propanoyloxy)butanoyl)-1′,4-Didehydro-1-deoxy-1,4-dihydro-3′-hydroxy-5′-[4-(2-methylpropyl)-1-piperazinyl]-1-oxorifamycin VIII] |  | 0.125 µg/mL | 0.0625 µg/mL | 0.03125 µg/mL |  |  | statistically significant |  |  |  | 2.50% | 1.98% | not significantly impacted |  |  |  |  |  | 2.05 ± 0.06 Log CFU/g of bone
